SMILES strings stand for the structures.

Experimental findings from US8389532B2, “7-[2-[4-(6-fluoro-3-methyl-1,2-benzisoxazol-5-yl)-1-piperazinyl]ethyl]-2-(1-propynyl)-7H-pyrazolo-[4,3-E]-[1,2,4]-triazolo-[1,5-C]-pyrimidin-5-amine” (Merck Sharp & Dohme Corp., priority 2005, dated 2013) are described below.

The target in one experiment is T1, A2a receptor (Rattus norvegicus, UniProt P30543).
T1 construct: The A2a receptor-rich striatal nucleus was dissected and homogenized in buffer solution; from tissue; host or cells: rat striatum homogenate
Nature of the experiment: Ex vivo binding study to show duration of receptor occupancy (striatal homogenate, 3H-SCH 58261). As to conditions: rats dosed 1 mg/kg; for receptor occupancy at 1 mg/kg: rat, 4 hours prior to sacrifice, read-out: decrease in 3H-SCH 58261 binding (receptor occupancy). It is filed as in vivo. The procedure:
Ex Vivo Binding Study to Show Duration of Receptor Occupancy:
Rats were dosed with 1 mg/kg of the compound of formula I and the compound of formula II (generically disclosed in U.S. Pat. No. 6,897,217)
[drawing 4] for 4, 8, 12, and 16 hours prior to sacrifice and removal of brains. The A2a receptor-rich striatal nucleus was dissected and homogenized in buffer solution. Striatal homogenate was incubated with the A2a antagonist radioligand ^3H-SCH 58261 (see WO 96/38728) prior to separation of bound and free radioactivity by filtration. Bound radioligand on filters was dried, soaked with scintillation fluid, and counted. Homogenates from striata of vehicle-treated rats treated with the same experimental conditions defined the quantity of bound radioligand in the absence of test compound.

The subject of another experiment is 6-OHDA lesioned rats. Nature of the experiment: 6-OHDA lesion of the middle forebrain bundle in rats (contralateral turning with subthreshold L-DOPA). The class given is in vivo, rat. The following applies: combined with sub-threshold L-DOPA. The procedure: 6-OHDA Lesion of the Middle Forebrain Bundle in Rats
Adult male Sprague-Dowley rats (Charles River, Calco, Como, Italy), weighing 275-300 g, are used in all experiments. The rats are housed in groups of 4 per cage, with free access to food and water, under controlled temperature and 12 hour light/dark cycle. The day before the surgery the rats are fasted over night with water ad libitum.
Unilateral 6-hydroxydopamine (6-OHDA) lesion of the middle forebrain bundle is performed according to the method described by Ungerstedt et al. (Brain Research, 1971, 6-OHDA and Cathecolamine Neurons, North Holland, Amsterdam, 101-127), with minor changes. Briefly, the animals are anaesthetized with chloral hydrate (400 mg/kg, ip) and treated with desipramine (10 mpk, ip) 30 min prior to 6-OHDA injection in order to block the uptake of the toxin by the noradrenergic terminals. Then, the animals are placed in a stereotaxic frame. The skin over the skull is reflected and the stereotaxic coordinates (−2.2 posterior from bregma (AP), +1.5 lateral from bregma (ML), 7.8 ventral from dura (DV) are taken, according to the atlas of Pellegrino et al (Pellegrino L. J., Pellegrino A. S. and Cushman A. J., A Stereotaxic Atlas of the Rat Brain, 1979, New York: Plenum Press). A burr hole is then placed in the skull over the lesion site and a needle, attached to a Hamilton syringe, is lowered into the left MFB. Then 8 μg 6-OHDA-HCl is dissolved in 4 μl of saline with 0.05% ascorbic acid as antioxidant, and infused at the constant flow rate of 1 μl/1 min using an infusion pump. The needle is withdrawn after additional 5 min and the surgical wound is closed and the animals left to recover for 2 weeks.
Any rat not showing at least 200 complete turns/2 h is not included in the study.
Selected rats receive the test drug 3 days after the priming test (maximal dopamine receptor supersensitivity).

A further experiment deals with haloperidol-induced EPS. Nature of the experiment: EPS assay in haloperidol-sensitized Cebus apella monkeys. The class given is in vivo. The following applies: 30 mg/kg co-administered with haloperidol 0.3 mg/kg. As to the method:
A test compound is administered orally (p.o.) at a dose ranging from 0.3-30 mg/kg, in conjunction with haloperidol. The studies are conducted using a within-subjects design such that each monkey receives all treatments (vehicle and doses of test compound) in a crossover, balanced design. The reduction in the maximum EPS score, as well as the dose-dependent delay in the onset of EPS are determined. In the EPS assay, four haloperidol-sensitized monkeys were co-administered the compound of formula I (30 mg/kg) and haloperidol (0.3 mg/kg) in a banana. A scoring system to rate the severity of each symptom was employed over a 6 hour observation period.

The target of experiment [1] is T2, Human A2a Adenosine Receptor (Homo sapiens, UniProt P29274).
T2 construct: purchased Perkin Elmer Life Sciences RBHA2AM
Nature of the experiment: Human adenosine A2a receptor competition binding assay. As to conditions: [3H]-SCH 58261 0.5 nM, human A2a membranes. The procedure: (§1) Human Adenosine A2a and A1 Receptor Competition Binding Assay Protocol
A2a: Human A2a Adenosine Receptor membranes, Catalog #RBHA2AM, Perkin Elmer Life Sciences, Shelton Conn. Dilute to 17 μg/100 μl in membrane dilution buffer (see below).
(§2) Membrane dilution buffer: Dulbecco's Phosphate Buffered Saline (Gibco/BRL)+10 mM MgCl2.
(§3) Compound Dilution Buffer: Dulbecco's Phosphate Buffered Saline (Gibco/BRL)+10 mM MgCl2 supplemented with 1.6 mg/ml methyl cellulose and 16% DMSO. Prepared fresh daily.
A2a: [3H]-SCH 58261, custom synthesis, AmershamPharmacia Biotech, Piscataway, N.J. Stock is prepared at 1 nM in membrane dilution buffer. Final assay concentration is 0.5 nM.
A2a: To determine non-specific binding, add 100 nM CGS 15923 (RBI, Natick, Mass.). Working stock is prepared at 400 nM in compound dilution buffer.
(§4) Prepare 1 mM stock solutions of compounds in 100% DMSO. Dilute in compound dilution buffer. Test at 10 concentrations ranging from 3 μM to 30 pM. Prepare working solutions at 4× final concentration in compound dilution buffer.
Perform assays in deep well 96 well plates. Total assay volume is 200 μl. Add 50 μl compound dilution buffer (total ligand binding) or 50 μl CGS 15923 working solution (A2a non-specific binding) or 50 μl NECA working solution (A1 non-specific binding) or 50 μl of drug working solution. Add 50 μl ligand stock ([3H]-SCH 58261 for A2a, [3H]-DPCPX for A1). […]

For experiment [2], the system named is haloperidol-induced catalepsy. Nature of the experiment: Haloperidol-induced catalepsy in the rat. The class given is in vivo. As to conditions: @ 4 h, rats. As to the method:
Haloperidol-Induced Catalepsy in the Rat Male Sprague-Dawley rats (Charles River, Calco, Italy) weighing 175-200 g are used. The cataleptic state is induced by the subcutaneous administration of the dopamine receptor antagonist haloperidol (1 mg/kg, sc), 90 min before testing the animals on the vertical grid test. For this test, the rats are placed on the wire mesh cover of a 25×43 plexiglass cage placed at an angle of about 70 degrees with the bench table. The rat is placed on the grid with all four legs abducted and extended (“frog posture”). The use of such an unnatural posture is essential for the specificity of this test for catalepsy. The time span from placement of the paws until the first complete removal of one paw (descent latency) is measured maximally for 120 sec. The selective A2A adenosine antagonists under evaluation are administered orally at doses ranging between 0.03 and 3 mg/kg, 1 and 4 h before scoring the animals.

The target in a further experiment is T3, A1 receptor (Homo sapiens, UniProt P30542).
T3 sequence (P30542 1-326): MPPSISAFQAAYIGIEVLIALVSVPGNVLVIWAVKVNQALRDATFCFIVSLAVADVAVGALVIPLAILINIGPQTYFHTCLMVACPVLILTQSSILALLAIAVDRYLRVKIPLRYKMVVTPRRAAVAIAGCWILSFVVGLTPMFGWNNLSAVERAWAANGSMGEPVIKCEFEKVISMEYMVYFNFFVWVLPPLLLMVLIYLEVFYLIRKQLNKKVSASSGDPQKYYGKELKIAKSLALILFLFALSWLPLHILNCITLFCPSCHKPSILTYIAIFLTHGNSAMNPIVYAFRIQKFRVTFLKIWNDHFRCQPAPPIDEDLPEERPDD
Nature of the experiment: Human adenosine A1 receptor competition binding assay (selectivity vs A2a). The following applies: A1 ligand [3H]-DPCPX. The procedure:
as §1, §2, §3
A1: [3H]-DPCPX, AmershamPharmacia Biotech, Piscataway, N.J. Stock is prepared at 2 nM in membrane dilution buffer. Final assay concentration is 1 nM.
A1: To determine non-specific binding, add 100 μM NECA (RBI, Natick, Mass.). Working stock is prepared at 400 μM in compound dilution buffer.
as §4
Perform assays in deep well 96 well plates. Total assay volume is 200 μl. Add 50 μl compound dilution buffer (total ligand binding) or 50 μl CGS 15923 working solution (A2a non-specific binding) or 50 μl NECA working solution (A1 non-specific binding) or 50 μl of drug working solution. Add 50 μl ligand stock ([3H]-SCH 58261 for A2a, [3H]-DPCPX for A1). Add 100 μl of diluted membranes containing the appropriate receptor. Mix. Incubate at room temperature for 90 minutes. […]
Selectivity is determined by dividing Ki for A1 receptor by Ki for A2a receptor. […]

T1 sequence (P30543 whole entry): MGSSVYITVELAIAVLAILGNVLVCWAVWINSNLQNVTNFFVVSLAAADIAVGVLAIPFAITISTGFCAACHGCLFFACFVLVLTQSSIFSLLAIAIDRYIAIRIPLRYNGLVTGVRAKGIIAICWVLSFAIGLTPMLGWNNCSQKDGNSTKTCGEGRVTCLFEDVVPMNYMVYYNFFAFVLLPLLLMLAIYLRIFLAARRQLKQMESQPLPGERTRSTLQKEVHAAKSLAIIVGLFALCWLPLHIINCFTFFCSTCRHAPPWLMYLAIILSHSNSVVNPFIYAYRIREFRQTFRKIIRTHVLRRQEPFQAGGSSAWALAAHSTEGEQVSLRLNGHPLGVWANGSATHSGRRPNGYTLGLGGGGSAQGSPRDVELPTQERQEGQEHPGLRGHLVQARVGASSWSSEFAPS
T2 sequence (P29274 whole entry): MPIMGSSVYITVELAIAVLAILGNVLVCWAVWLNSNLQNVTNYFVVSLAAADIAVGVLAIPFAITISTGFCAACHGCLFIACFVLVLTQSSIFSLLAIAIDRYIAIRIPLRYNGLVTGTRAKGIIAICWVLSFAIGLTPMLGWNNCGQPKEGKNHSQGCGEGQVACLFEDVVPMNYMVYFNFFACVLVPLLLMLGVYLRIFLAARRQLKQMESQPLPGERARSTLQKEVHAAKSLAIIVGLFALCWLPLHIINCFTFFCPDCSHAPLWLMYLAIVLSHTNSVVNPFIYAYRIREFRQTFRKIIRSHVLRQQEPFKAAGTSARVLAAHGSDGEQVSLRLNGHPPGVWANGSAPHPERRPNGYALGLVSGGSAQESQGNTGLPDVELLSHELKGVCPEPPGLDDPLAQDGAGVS

For `CC#Cc1nc2c3cnn(CCN4CCN(c5cc(-c6noc(C)n6)ccc5F)CC4)c3nc(N)n2n1` [formula II, reference compound], the receptor occupancy at 1 mg/kg on A2a receptor was 47%. Also, at A2a receptor (8 hours), the “3H-SCH 58261 radioligand binding (receptor occupancy)” value was “restored to near vehicle-treated levels”.

As for `CC#Cc1nc2c3cnn(CCN4CCN(c5cc6c(C)noc6cc5F)CC4)c3nc(N)n2n1` [compound of formula I, 7-[2-[4-(6-fluoro-3-methyl-1,2-benzisoxazol-5-yl)-1-piperazinyl]ethyl]-2-(1-propynyl)-7H-pyrazolo-[4,3-e]-[1,2,4]-triazolo[1,5-c]pyrimidin-5-amine], the contralateral turning in the experiment with 6-OHDA lesioned rats (0.1 mpk orally) came to 218±142 rotations; in the experiment with 6-OHDA lesioned rats (0.3 mpk orally) it was 406±167 rotations; in the experiment with 6-OHDA lesioned rats (1 mpk orally) it was 360±178 rotations; in the experiment on 6-OHDA lesioned rats (3 mpk orally) it was 403±125 rotations. Also, the receptor occupancy at 1 mg/kg on A2a receptor is 42%. The “displacement of radiolabel (3H-SCH 58261)” value on A2a receptor (12 hours) is recorded as 40%. In addition, the “effect on haloperidol-induced EPS, three of four subjects” value in the experiment with haloperidol-induced EPS (6 hr observation period) was “completely blocked haloperidol-induced EPS”. Also, in the experiment with haloperidol-induced EPS (compared with haloperidol alone), the “effect on haloperidol-induced EPS, fourth subject” value is “delayed onset and reduced severity of EPS”. Besides, in experiment [1], the affinity, expressed as Ki, was 0.43 nM. The inhibition of catalepsy in experiment [2] (0.3 mpk orally) came out at 28%; in experiment [2] (1 mpk orally), 47%; in experiment [2] (3 mpk orally), 53%. At A1 receptor, the “Selectivity (Ki for A1 receptor divided by Ki for A2a receptor)” value is “greater than 2500 fold”.
